Laboratory results reported in patent US9611248B2, “Chemical compounds” (Syngenta Participations AG, priority 2013, dated 2017).

Test system: a variety of test species
Test: Post-emergence herbicidal activity
Assay type: in vivo
Set-up: key to ABUTH (Abutilon theophrasti) damage score / AMARE (Amaranthus retroflexus) damage score / ALOMY (Alopecurus myosuroides) damage score / ECHCG (Echinochloa crus-galli) damage score / ZEAMX (Zea mays) damage score / SOLNI (Solanum nigrum) damage score: 0 = no damage to plant, 5 = total damage to plant
Conditions: rate 1000 g/ha, evaluated after 13 days
Experimental: Seeds of a variety of test species were sown in standard soil in pots. After 8 days cultivation (post-emergence) under controlled conditions in a glasshouse (at 24/16° C., day/night; 14 hours light; 65% humidity), the plants were sprayed with an aqueous spray solution derived from the formulation of the technical active ingredient in acetone/water (50:50) solution containing 0.5% Tween 20 (polyoxyethelyene sorbitan monolaurate, CAS RN 9005-64-5). The test plants were then grown in a glasshouse under controlled conditions (at 24/16° C., day/night; 14 hours light; 65% humidity) and watered twice daily. After 13 days, the test was evaluated (5=total damage to plant; 0=no damage to plant, NC=not captured).

Row | SMILES | ABUTH (Abutilon theophrasti) damage score | ALOMY (Alopecurus myosuroides) damage score | AMARE (Amaranthus retroflexus) damage score | ECHCG (Echinochloa crus-galli) damage score | SETFA (Setaria faberi) damage score | ZEAMX (Zea mays) damage score | SOLNI (Solanum nigrum) damage score
1 | COC1=C(C)C(=O)N(c2cc(C(F)(F)F)c(Cl)cn2)C1O (stereo not drawn) [AD30] | 5 | 5 | 5 | 5 | 4 | 1 | –
2 | COC1=C(C)C(=O)N(c2cc(C(F)(F)F)c(Br)cn2)C1O (stereo not drawn) [AD31, 1-[5-bromo-4-(trifluoromethyl)-2-pyridyl]-2-hydroxy-3-methoxy-4-methyl-2H-pyrrol-5-one] | 5 | 5 | 5 | 5 | 4 | 1 | –
3 | C=Cc1ccc(N2C(=O)C(C)=C(OC)C2O)nc1 (stereo not drawn) [AD33] | 2 | 1 | 1 | 3 | 2 | 0 | –
4 | COC1=C(C)C(=O)N(c2cc(C(F)(F)F)ccn2)C1O (stereo not drawn) [AD34] | 5 | 5 | 5 | 5 | 5 | 0 | –
5 | COC1=C(C)C(=O)N(c2ccc(C(F)(F)F)cn2)C1O (stereo not drawn) [AD35] | – | 3 | 5 | 3 | 4 | 0 | 5
6 | COC(=O)c1cnc(N2C(=O)C(C)=C(OC)C2O)cc1C(F)(F)F (stereo not drawn) [AD37] | 4 | 3 | 5 | 3 | 2 | 0 | –
7 | COC1=C(C)C(=O)N(c2cc(C(F)(F)F)c(/C(C)=C/C#N)cn2)C1O (stereo not drawn) [AD38, (E)-3-[6-(2-hydroxy-3-methoxy-4-methyl-5-oxo-2H-pyrrol-1-yl)-4-(trifluoromethyl)-3-pyridyl]but-2-enenitrile] | 5 | 5 | 5 | 5 | 5 | 0 | –
8 | COC1=C(C)C(=O)N(c2cc(OC(F)(F)F)ccn2)C1O (stereo not drawn) [AD39] | 4 | 4 | 2 | 4 | 4 | 0 | –
9 | COC1=C(C)C(=O)N(c2cc(C(C)(C)C)ccn2)C1O (stereo not drawn) [AD40] | 5 | 5 | 5 | 5 | 5 | 3 | –
10 | C=CCOC1=C(C)C(=O)N(c2cc(C(F)(F)F)ccn2)C1O (stereo not drawn) [AD42] | 5 | 4 | 5 | 5 | 5 | 2 | –
11 | CC1=C(OCC(F)(F)F)C(O)N(c2cc(C(F)(F)F)ccn2)C1=O (stereo not drawn) [AD44, 2-hydroxy-4-methyl-3-(2,2,2-trifluoroethoxy)-1-[4-(trifluoromethyl)-2-pyridyl]-2H-pyrrol-5-one] | 5 | 3 | 5 | 4 | 5 | 1 | –
12 | CCOC1=C(C)C(=O)N(c2cc(C(F)(F)F)ccn2)C1O (stereo not drawn) [AD45, 3-ethoxy-2-hydroxy-4-methyl-1-[4-(trifluoromethyl)-2-pyridyl]-2H-pyrrol-5-one] | 5 | 4 | 5 | 5 | 3 | 1 | –
13 | COC1=C(C)C(=O)N(c2ccc(OC(F)(F)F)cn2)C1O (stereo not drawn) [AD47] | 5 | 3 | 5 | 3 | 4 | 0 | –
14 | COC1=C(C)C(=O)N(c2cc(C(F)(F)F)c(I)cn2)C1O (stereo not drawn) [AD51] | 5 | 4 | 5 | 5 | 5 | 1 | –
15 | COC1=C(C)C(=O)N(c2cc(C(C)(C)CCl)ccn2)C1O (stereo not drawn) [AD52] | 5 | 5 | 4 | 5 | 5 | 1 | –
16 | COC1=C(C)C(=O)N(c2cc(C(F)(F)F)c(C(=O)NC(C)C)cn2)C1O (stereo not drawn) [AD53] | 5 | 5 | 5 | 5 | 5 | 5 | –
17 | COC1=C(C)C(=O)N(c2cc(C(F)(F)F)c(C(=O)NC(C)(C)C)cn2)C1O (stereo not drawn) [AD54] | 5 | 5 | 5 | 5 | 5 | 5 | –
18 | CCOc1cnc(N2C(=O)C(C)=C(OC)C2O)cc1C(F)(F)F (stereo not drawn) [AD55] | 5 | 5 | 5 | 5 | 5 | 3 | –
19 | COC1=C(C)C(=O)N(c2cc(C(F)(F)F)c(OCC(C)C)cn2)C1O (stereo not drawn) [AD56] | 5 | 5 | 5 | 5 | 5 | 0 | –
20 | COC1=C(C)C(=O)N(c2cc(C(F)(F)F)c(OCC3CCCO3)cn2)C1O (stereo not drawn) [AD57] | 5 | 4 | 5 | 5 | 5 | 1 | –
21 | COC1=C(C)C(=O)N(c2cc(C(F)(F)F)c(/C(C)=C\C#N)cn2)C1O (stereo not drawn) [AD58, (Z)-3-[6-(2-hydroxy-3-methoxy-4-methyl-5-oxo-2H-pyrrol-1-yl)-4-(trifluoromethyl)-3-pyridyl]but-2-enenitrile] | 5 | 4 | 5 | 5 | 5 | 2 | –
22 | COC1=C(C)C(=O)N(c2cc(C(F)(F)F)c(-c3ccc(F)cc3)cn2)C1O (stereo not drawn) [AD59] | 5 | 4 | 5 | 4 | 5 | 1 | –
23 | COC1=C(C)C(=O)N(c2cc(C)c(-c3ccc(F)cc3)cn2)C1O (stereo not drawn) [AD60] | 5 | 2 | 5 | 1 | 4 | 1 | –
24 | COC1=C(C)C(=O)N(c2cc(C)c(-c3ccsc3)cn2)C1O (stereo not drawn) [AD61] | 5 | 1 | 5 | 3 | 4 | 1 | –
25 | CCc1cc(N2C(=O)C(C)=C(OC)C2O)ncc1-c1ccc(F)cc1 (stereo not drawn) [AD62] | 4 | 3 | 5 | 3 | 5 | 0 | –
26 | COC1=C(C)C(=O)N(c2cc(C)c(-c3ccccc3)cn2)C1O (stereo not drawn) [AD63] | 5 | 3 | 5 | 3 | 5 | 1 | –
27 | COC1=C(C)C(=O)N(c2cc3c(cn2)CCCC3)C1O (stereo not drawn) [AD64] | 4 | 1 | 2 | 3 | 5 | 1 | –
28 | COC1=C(C)C(=O)N(c2cc(C)c(-c3ccc(F)cc3C)cn2)C1O (stereo not drawn) [AD65] | 4 | 2 | 5 | 4 | 5 | 1 | –
